# Non-standard residues stand in square brackets, D forms with d. No end group written: not given here. *: point of attachment. prenyl = prenyl group added to Trp by KgpF, CC(C)=CC*
# Key:
# KgpF [1] = conditions: literature finding; cited from earlier work
# MetAP1 = MetAP1 (Homo sapiens, UniProt P53582); assay: MetAP1 inhibition test of prenylated cyclic peptide (probe fluorescence); type: biochemical; conditions: prenylated peptide at 1 μM, 5 μM or 10 μM; cofactor Mn2+ or Co2+ 100 μM; MetAP1 1 μM; 37° C., 120 min (FIG. 13)
# Protocol: A MetAP1 inhibition test was performed in vitro using the prenylated Met2, Met3a-L, and Met3-1 at concentrations of 1 μM, 5 μM or 10 μM in the presence of a MetAP1 cofactor Mn^2+ or Co^2+. In the test, enzymatic activity was measured by detecting probe fluorescence, that is, fluorescence emitted depending on the enzymatic activity of MetAP1.
# (Conditions) • Scale: 20 μL • Cyclic peptide: 1, 5, 10 μM • MnCl2 or CoCl2: 100 μM • MetAP1 enzymatic activity probe: 1 μM • MetAP1: 1 μM • Tris (pH7.6): 25 mM • NaCl: 75 mM • Reaction: 37° C., 120 min.
# After the reaction, the fluorescence intensity of the probe was measured using a plate reader.
# KgpF [2] = assay: Prenylation of artificial cyclic peptides with 160 μM KgpF at 0° C., 20 hours (Conditions 13/14 and 19/20; Examples 10, 14, 19; Tables 6 and 18); type: biochemical, Microcystis aeruginosa; parameters: key: 5: strong intensity; 4: medium intensity; 3: weak intensity; 2: very weak intensity; 1: no peak; N/A: not observed; conditions: Table 18; Conditions 13 and 14 (160 μM KgpF, 0° C., 20 hours); NSGGVS added to C terminal
# Protocol: The artificial cyclic peptides Clone-M1 to M9 shown below were obtained by translation and synthesis in the artificial translation system (Conditions 13) developed by the present inventors. The peptides thus obtained were then reacted with 160 μM KgpF in the system shown in (Conditions 14) at 0° C. for 20 hours.
# (Conditions 13) • FIT system: v8s/v11.0 • 19aa-Met: 0.5 mM • ClAc-D-Tyr-tRNA^fMetCUA: 90 μM • Reaction: 37° C., 60 min. • Scale: 2.5 μL scale
# After the above reaction was performed, the reaction product was incubated at 25° C. for 12 minutes.
# Then, a cyclization reaction was performed under the following conditions. • Translated mixture amount: 2.5 μL (mixture obtained by the above reaction) • EDTA: 18 mM • Reaction: 42° C., 60 min. • Scale: 2.75 μL scale
# (Conditions 14) • Translated mixture amount: 2.75 μL (mixture obtained under (Conditions 13)) • KOH: 6.0 mM • Mg(OAc)2: 9.0 mM • Tris-HCl (pH 8.3) 15 mM • KgpF: 160 μM • DMAPP: 2 mM • Reaction: 0° C., 20 hours
# The artificial cyclic peptides shown below were obtained by translation and synthesis in the artificial translation system (Conditions 19) developed by the present inventors. The peptides thus obtained were then reacted with 160 μM KgpF in the system shown in (Conditions 20) at 0° C. for 20 hours.
# (Conditions 19) • FIT system: v8s/11.0 • 19aa-Met: 0.5 mM • ClAc-D-Tyr-tRNA^fMetCUA: 90 μM • Reaction: 37° C., 60 min. • Scale: 2.5 μL scale
# (Conditions 20) • Translated mixture amount: 2.75 μL (mixture obtained under (Conditions 19)) • KOH: 6.0 mM • Mg(OAc)2: 9.0 mM • Tris-HCl (pH 8.3): 15 mM • KgpF: 160 μM • DMAPP: 2 mM • Reaction: 0° C., 20 hours
# Then, the compound library was provided for a step of screening cyclic peptides having interaction with an enzyme MetAP1 (Human) as in the scheme shown in FIG. 8. It has been confirmed that with regards to some of the peptides shown in FIG. 10, peptides having these sequences are modified by prenylation as shown in Table 18 by bringing them into contact with KgpF under conditions shown in (Conditions 13) and (Conditions 14).
# Target sequence in this assay (as listed by the source): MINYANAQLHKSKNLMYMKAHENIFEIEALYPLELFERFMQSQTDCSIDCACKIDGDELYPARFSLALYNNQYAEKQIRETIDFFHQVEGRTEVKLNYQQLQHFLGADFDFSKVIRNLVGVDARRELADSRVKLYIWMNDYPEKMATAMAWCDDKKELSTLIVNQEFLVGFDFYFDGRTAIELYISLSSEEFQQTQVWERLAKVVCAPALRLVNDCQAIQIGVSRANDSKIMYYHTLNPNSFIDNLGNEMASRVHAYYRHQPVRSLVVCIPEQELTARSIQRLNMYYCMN
Compound,prenylation by KgpF (KgpF [1]),inhibition of the enzymatic activity of MetAP1 (MetAP1),"Peak intensity, The number of prenyl groups added 0 (KgpF [2])","Peak intensity, The number of prenyl groups added 1 (KgpF [2])"
O=C(N[C@@H](Cc1c[nH]c2ccccc12)C(=O)O)OCC1c2ccccc2-c2ccccc21 [Fmoc-Trp-OH],low efficiency,,,
Cyclic [WLNGDNNWSTP]: main-chain cyclized peptide of 11 residues formed from precursor peptide KgpE; natural substrate giving Kawaguchipeptin A (SEQ ID NO: 386) (main-chain cyclized),prenylates two Trp residues,,,
Met3: prenylated cyclic peptide identified by screening with MetAP1 as a target (Ac-[dY]KRKAW(prenyl)ICQTAVYCNSGGVS; thioether (positions not given here); not fully specified (C-terminus)),,inhibit the enzymatic activity of MetAP1,2,5
"Met3a-L: cyclic peptide SEQ ID NO: 362 from MetAP1 screening, Fmoc solid-phase synthesis, prenylated with KgpF (YKRKAWLC; also: cyclic, ring not given here, prenylated with KgpF)",,inhibit the enzymatic activity of MetAP1,,

# — patent US20220275534A1, “Peptide Library Production Method” (The University of Tokyo, priority 2018, published 2022)
